Assay results: patent publication US11679107B2 (Eisai R&D Management Co., Ltd., priority 2018, dated 2023)
Like-named read-outs stand apart in the source and are kept apart here.

Assays:
[1] = test system: NCI-H1568 cells (high MCL1); assay: Cell proliferation and viability, CellTiter-Glo, 72 hours; type: cell-based; settings: for GI50: geometric mean; for CTGlo-ATS Mean MinResponse % 72 h NCIH1568.1: −100% cidal, 0% static, 100% maximal growth
Experimental: Cell lines were maintained in RPMI-1640 (ATCC 30-2001) supplemented with 10% fetal bovine serum (FBS). The Panc lines were supplemented in addition with insulin and FBS up to 15% total.
Compounds for assay were prepared as stocks in 90% dimethyl sulfoxide (DMSO), assessed for purity by LC/MS, and serially diluted in DMSO using a low-volume liquid handler (VIAFLO ASSIST and VIAFLO II electronic 16-channel pipette, 0.5-12.5 μL) in an 11-point half-log serial dilution to create a master dose response (MDR) source used for all tests.
Transfer of compounds from the MDR source plate to cell assay-ready plates were accomplished directly by low-energy acoustic transfer (ATS100, EDC Biosystems). After transfer of compounds to the assay plate, the dose-response range experienced by cells was typically 10 μM-100 pM (5 logs), and final DMSO concentration in the assay was 0.1%, uniformly. Each assay plate was self-anchored containing vehicle/DMSO negative controls, medium-only/positive controls, and cidal control dose-responses of bortezomib and staurosporine. Assay-ready plates were heat-sealed and stored at −20° C. until used, no longer than one month.
A DMSO-matched time zero (T0) plate was read and then all other plates were incubated at 37° C. with 5% CO2 and 95% relative humidity until the end of assay. Cell proliferation and viability assays were performed 72 hours post-treatment depending on cell growth where at least one doubling would have occurred.
Assessment of viability and proliferation was by measurement of cell ATP content using CellTiter-Glo® Luminescent Cell Viability Assay reagent (Promega) according to the manufacturer's instructions (CellTiter-Glo® Luminescent Cell Viability Assay Technical Bulletin Instructions for Use of Product(s) G7570, G7571, G7572, G7573 Literature #TB288, Revised March 2015), using a microtiter plate reader (Envision, PE).
Cell proliferation was evaluated using the time zero (T0) signal as the positive control and the within-plate vehicle wells (DMSO) as the negative control. Data was converted to percent inhibition and falls into the range from −100% to 100% of growth where −100% equals a cidal response and 100% equals uninhibited or maximal growth. Cell growth at or near 0% is considered a static response.

[2] = test system: Ad2 variant pre-mRNAs spliced in HeLa S3 nuclear extracts; assay: In vitro splicing assay (IVS), RT-qPCR of spliced product; type: biochemical; settings: geometric mean
Experimental: (§1) Batch immobilization of anti-SF3B1 antibody (MBL) to anti-mouse PVT SPA scintillation beads (PerkinElmer) was prepared as follows: for every 2.5 mg of nuclear extracts, 5 μg anti-SF3B1 antibody and 1.5 mg of beads were mixed in 150 μl PBS. The antibody-bead mixture was incubated for 30 min at RT and centrifuged at 18,000 g for 5 min. 150 μl PBS was used to resuspend every 1.5 mg antibody-bead mixture. The beads were suspended and added to the prepared nuclear extracts. The slurry was incubated for 2 h at 4° C. with gentle mixing. The beads were then collected by centrifuging at 18,000 g for 5 min, and washed twice with PBS+0.1% Triton X-100. After a final centrifugation step, every 1.5 mg of beads was suspended with 150 μl of PBS. The SF3b complexes were tested for [^3H]-labelled pladienolide probe binding ([^3H]—PB), synthesized as previously described (Kotake et al., 2007). 100 μl binding reactions were prepared with 50 μl bead slurry and by adding varying concentrations of PB or PB—OH, and after 30 min pre-incubation, 2.5 nM [^3H]—PB was added. The mixture was incubated for 30 min, and luminescence signals were read using a MicroBeta2 Plate Counter (PerkinElmer). Prism 6 (Graphpad) was used for non-linear regression curve fitting of the data. • a. • b. HeLa nuclear extract preparation (for in vitro splicing modulation assay below) • c. HeLa S3 cell pellets were resuspended in hypotonic buffer (10 mM HEPES pH 7.9, 1.5 mM MgCl2, 10 mM KCl, 0.2 mM PMSF, and 0.5 mM DTT) and the suspension was brought up to a total of 5 packed cell volume (PCV). After centrifugation, the supernatant was discarded, and the cells were brought up to 3 PCV with hypotonic buffer and incubated on ice for 10 minutes. Cells were lysed using a dounce homogenizer and then centrifuged. The supernatant was discarded, and the pellet was resuspended with ½ packed nuclear volume (PNV) of low salt buffer (20 mM HEPES pH 7.9, 1.5 mM MgCl2, 20 mM KCl, 0.2 mM EDTA, 25% glycerol, 0.2 mM PMSF, 0.5 mM DTT), followed by ½ PNV of high salt buffer (same as low salt buffer except 1.4 M KCl was used). The nuclei were gently mixed for 30 minutes before centrifuging. The supernatant (nuclear extract) was then dialyzed into storage buffer (20 mM HEPES pH 7.9, 100 mM KCl, 0.2 mM EDTA, 20% glycerol, 0.2 mM PMSF, 0.5 mM DTT). Protein concentration was determined using NanoDrop 8000 UV-Vis spectrophotometer (ThermoFisher Scientific). • d. In vitro splicing assay (IVS)
All Ad2-derived (Pellizzoni et al., 1998) sequences were cloned into pcDNA3.1(+) vector (Promega) using 5′ EcoRI and 3′ XbaI restriction sites. The plasmids were linearized using XbaI and used as DNA templates in the in vitro transcription reactions. The FtzΔi intron-less plasmid (Luo and Reed, 1999) was linearized using EcoRI. All RNAs were in vitro transcribed and then purified using MEGAScript T7 (Invitrogen) and MegaClear (Invitrogen) kits, respectively. For splicing reactions using Ad2 variant pre-mRNAs, […] reactions were prepared using 8 μg nuclear extracts prepared from HeLa S3, 2 ng pre-mRNA, 0.2 ng FTZΔi, and varying concentrations of exemplary payloads or DMSO. After a 15 minute pre-incubation at 30° C., 1 μL splicing activation buffer (0.5 mM ATP, 20 mM creatine phosphate, 1.6 mM MgCl2) was added, and the reactions were incubated for 90 minutes at 30° C. The reactions were then quenched with 13 μL it DMSO, and 25 nL was used for RT-qPCR. RT-qPCR reactions were prepared using TaqMan RNA-to-CT 1-step kit (Life Technologies), RNA from splicing reactions, Ad2 (forward: […]; reverse: […]; probe: […]) and Ftz (forward: […]; reverse: […]; probe: […]) mRNA primer-probe sets. Prism 6 (Graphpad) was used for non-linear regression curve fitting of the formed spliced product and normalized to the control (DMSO) sample.

[3] = biological target: T1, SF3b complexes (Homo sapiens, UniProt O75533+Q7RTV0); assay: Scintillation proximity assay (SPA) with [3H]-labelled pladienolide probe; type: binding; settings: SF3B1 (WT); geometric mean; read-out: SPA-ATS GMean IC50 (nM) SF3B1 (WT)
T1 construct: endogenous in cells; host or cells: Nuclear extracts; A HeLa S3 extract preparation is described for the in vitro splicing assay
Experimental: Scintillation Proximity Assay (SPA) with [^3-H]-Labelled Pladienolide Probe
as §1

[4] = NCI-H1568, read-out: CTGlo-ATS GMean GI50 (nM) 72 h NCIH1568.1, NCIH1568.1 cells, 72 h
[5] = Ad2.1 pre-mRNA substrate, read-out: qPCR-IVS-ATS GMean IC50 (nM) Ad2.1
[6] = Ad2.2 pre-mRNA substrate, read-out: qPCR-IVS-ATS GMean IC50 (nM) Ad2.2
[7] = NCI-H1568, 72 h, read-out: CTGlo-ATS GMean GI50 (nM) 72 h NCIH1568.1, NCIH1568.1 cells, 72 h

Row | Compound | GI50 [1, 4] [nM] | CTGlo-ATS Mean MinResponse % 72 h NCIH1568.1 ([1]; NCIH1568.1 cells, 72 h) [%] | IC50 [2, 5] [nM] | IC50 [2, 6] [nM] | IC50 [3] [nM] | GI50 [1, 7] [nM]
1 | C/C(=C\c1cc(F)c2nnn(Cc3ccc(Cl)cc3)c2c1)[C@H]1OC(=O)C[C@H](O)CC[C@H](C)[C@@H](OC(=O)N2CCN(C)CC2)/C=C/[C@@H]1C [Compound 145] | 25 | −66.236 | 688 | 38.1 | 69.4 | –
2 | CC(=O)N1CCC(n2cnc3c(F)cc(/C=C(\C)[C@H]4OC(=O)C[C@H](O)CC[C@H](C)[C@@H](OC(=O)N5CCN(C)CC5)/C=C/[C@@H]4C)cc32)CC1 [Compound 146] | – | −88.975 | 11.1 | 12.7 | 22.7 | 2.79
3 | C/C(=C\c1cc(F)c2nnn([C@H]3CC[C@H](O)CC3)c2c1)[C@H]1OC(=O)C[C@H](O)CC[C@H](C)[C@@H](OC(=O)N2CCN(C)CC2)/C=C/[C@@H]1C [Compound 147] | 1.56 | −91.884 | 9.57 | 7.43 | 7.3 | –
4 | C/C(=C\c1cc(F)c2nnn([C@@H](C)CO)c2c1)[C@H]1OC(=O)C[C@H](O)CC[C@H](C)[C@@H](OC(=O)N2CCN(C)CC2)/C=C/[C@@H]1C [Compound 149] | 1.66 | −73.106 | 9.13 | 8.71 | 1.86 | –
5 | C/C(=C\c1cc(F)c2nnn([C@H](C)CO)c2c1)[C@H]1OC(=O)C[C@H](O)CC[C@H](C)[C@@H](OC(=O)N2CCN(C)CC2)/C=C/[C@@H]1C [Compound 150] | 2.19 | −68.000 | 8.58 | 11 | 1.32 | –
6 | C/C(=C\c1cc(F)cc(N2CCN(C(=O)[C@H]3CCOC3)CC2)c1)[C@H]1OC(=O)C[C@H](O)CC[C@H](C)[C@@H](OC(=O)N2CCN(C)CC2)/C=C/[C@@H]1C [Compound 151] | – | −83.213 | 17.9 | 11.4 | 3.41 | 2.24
7 | C/C(=C\c1cc(F)cc(N2CCN(C(=O)[C@@H]3CCOC3)CC2)c1)[C@H]1OC(=O)C[C@H](O)CC[C@H](C)[C@@H](OC(=O)N2CCN(C)CC2)/C=C/[C@@H]1C [Compound 152] | – | −80.509 | 16.2 | 8.39 | 3.83 | 1.51
8 | C/C(=C\c1cc(F)cc(N2CCN(C(=O)C3COC3)CC2)c1)[C@H]1OC(=O)C[C@H](O)CC[C@H](C)[C@@H](OC(=O)N2CCN(C)CC2)/C=C/[C@@H]1C [Compound 153] | 2.34 | −81.206 | 14.5 | 14.8 | 4.83 | –
9 | C/C(=C\c1cc(F)cc(N2CCN(C(=O)C3(C)COC3)CC2)c1)[C@H]1OC(=O)C[C@H](O)CC[C@H](C)[C@@H](OC(=O)N2CCN(C)CC2)/C=C/[C@@H]1C [Compound 154] | 1.85 | −85.459 | 20 | 8.72 | 3.75 | –
10 | C/C(=C\c1cc(F)cc(N2CCN(C(=O)CCO)CC2)c1)[C@H]1OC(=O)C[C@H](O)CC[C@H](C)[C@@H](OC(=O)N2CCN(C)CC2)/C=C/[C@@H]1C [Compound 155] | 1.91 | −83.475 | 8.45 | 5.88 | 2.21 | –
11 | C/C(=C\c1cc(F)c2nnn(C3(C)CCOCC3)c2c1)[C@H]1OC(=O)C[C@H](O)CC[C@H](C)[C@@H](OC(=O)N2CCN(C)CC2)/C=C/[C@@H]1C [Compound 156] | – | −87.369 | 8.37 | 7.91 | 3.95 | 1.27
12 | C/C(=C\c1cc(F)c2nnn(C3CCN(S(C)(=O)=O)CC3)c2c1)[C@H]1OC(=O)C[C@H](O)CC[C@H](C)[C@@H](OC(=O)N2CCN(C)CC2)/C=C/[C@@H]1C [Compound 157] | 1.29 | −90.424 | 8.47 | 7.49 | 2.27 | –
13 | C/C(=C\c1cc(F)c2nnn(C3CCS(=O)(=O)CC3)c2c1)[C@H]1OC(=O)C[C@H](O)CC[C@H](C)[C@@H](OC(=O)N2CCN(C)CC2)/C=C/[C@@H]1C [Compound 158] | 6.57 | −87.167 | 18.9 | 18.2 | 13.9 | –
14 | COCCn1nnc2c(F)cc(/C=C(\C)[C@H]3OC(=O)C[C@H](O)CC[C@H](C)[C@@H](OC(=O)N4CCN(C)CC4)/C=C/[C@@H]3C)cc21 [Compound 159] | 3.45 | −65.047 | 88.3 | 10.2 | 1.84 | –
15 | C/C(=C\c1cc(F)c2nnn([C@@H]3CCCOC3)c2c1)[C@H]1OC(=O)C[C@H](O)CC[C@H](C)[C@@H](OC(=O)N2CCN(C)CC2)/C=C/[C@@H]1C [Compound 161] | 0.772 | −85.783 | 8.5 | 6.31 | 2.51 | –
